Measured values taken from article PMC3198688, “Design and development of a peptide-based adiponectin receptor agonist for cancer treatment” (BMC Biotechnology, 2011).
Where two headings read alike, the source gives them in different places. Square brackets hold non-standard residues; d marks the D form. Peptide text beside a SMILES is read from it. Nva = CCC[C@H](N)C(=O)O

Assays:
[1] = test system: MCF-7 breast cancer cells; assay: Growth inhibition (cytostatic) screening in MCF-7 cells; assay type: cell-based, human
Experimental: Biological activity of the peptides was first assessed using MCF-7 breast cancer cells that are known to express AdipoR1 [38]. MCF-7 cell line was obtained from ATCC (Manassas, VA) and routinely grown in DMEM:F12 plus 5% calf serum (Cellgro Mediatech, Manassas, VA) at 37°C, 5% CO2. For screening experiments, MCF-7 cells were plated in 24-well plates at the concentration of 30,000 cells/well. After 12 h of culture in the growth medium, the cells were synchronized in serum-free medium (SFM) (DMEM:F12 supplemented with […] bovine serum albumin, 1 mM FeSO4 and 2 mM L-glutamine) for 24 h, and then shifted back to the full growth medium containing either gAd (Phoenix Secretomics, Burlingame, CA) at 50 ng/mL, individual peptides, or no test compounds. After 24 h, the cells were counted under the microscope with trypan-blue exclusion. Each experiment was performed in triplicate and repeated at least three times.
The effects of the lead active peptide 355 ([…]) on cell proliferation were tested in breast cancer cell lines (MCF-7, MDA-MB-231) and in glioblastoma cells (LN18), all obtained from ATCC and routinely cultured as described previously. The peptide was tested at 10 pM-100 μM concentrations under conditions described above under peptide screening.

[2] = target: T1, AdipoR1 extracellular loops (Homo sapiens, UniProt Q96A54); assay: Screening of AdipoR1/peptide binding (ELISA plate, biotin-labeled loop peptides); settings: preliminary, qualitative study; biotin-labeled loop fragments; data not shown
T1 construct: biotin-labeled linear synthetic models of the 4 extracellular loops of AdipoR1; made in house; host or cells: chemical solid-phase peptide synthesis (Fmoc), no expression host
Source text: (§1) The 66 unmodified adiponectin array peptides were individually dried down to wells of an ELISA plate, and tested for binding to biotin-labeled linear synthetic models of the 4 extracellular loops of AdipoR1. The receptor/peptide interaction was detected by horseradish-peroxidase conjugated streptavidin.

[3] = test system: AdipoR1 extracellular loops; assay: as above; settings: preliminary, qualitative study; biotin-labeled loop fragments; data not shown
Source text: as §1

[4] = Peptide stability in whole mouse blood; assay type: in vitro ADME
Experimental: Sixty μg of ADP 355 were dissolved in 100 μL water, and 10 μL aliquots were mixed with 100 μL of freshly drawn mouse blood. After 30 min of incubation at 37°C, blood cells were centrifuged at 10,000 × g. Fifty μL serum was mixed with 50 μL phosphate buffered saline pH 6.8 (PBS), and serum proteins were precipitated by addition of 45 μL aqueous 15% trichloroacetic acid (TCA) for 10 min at 4°C. After centrifugation at 12,000 × g, the supernatant was neutralized with 0.1 M aqueous sodium hydroxide and 0.5 μL of this solution was mixed with 0.5 μL α-cyano-4-hydroxycinnamic acid (4 mg/mL in 60% aqueous acetonitrile containing 0.1% TFA) as matrix on a sample plate. Analysis was performed using a MALDI time-of-flight tandem mass spectrometer (MALDI-TOF/TOF-MS, 4700 proteomic analyzer, Applied Biosystems, Weiterstadt, Germany). Additionally, the neutralized supernatant was loaded on a Jupiter C18 RP-HPLC column (4.6 mm internal diameter, 150 mm length, 5 μm particle size, 30 nm pore size) previously calibrated with known amounts of ADP 355 dissolved in PBS. Absorbance was measured at 214 nm.

[5] = In vivo toxicity in CBA/J mice; settings: for Kidney weight / Liver weight / Spleen weight: CBA/J mice, day 5
Source text: On day 5, the mice were sacrificed by CO2 inhalation. The potential peptide elimination organs: the livers, spleens and kidneys were removed and weighed.

SMILES | biological activity in cell growth inhibition assays [1] | binding to the first extracellular loop of AdipoR1 [2] | binding to the other extracellular loops of AdipoR1 [3] | stability in whole mouse blood after 30 min ([4]; freshly drawn whole mouse blood, 37°C, 30 min, 10 μL of 60 μg/100 μL peptide in 100 μL blood, TCA precipitation, MALDI-TOF/TOF-MS and C18 RP-HPLC (214 nm)) | stability in mouse blood or serum ([4]; mouse blood or serum, 37°C (abstract)) | Kidney weight ([5]; 5 mg/kg bolus ip) [g] | Liver weight ([5]; 5 mg/kg bolus ip) [g] | Spleen weight ([5]; 5 mg/kg bolus ip) [g] | Kidney weight ([5]; 10 mg/kg bolus ip) [g] | Liver weight ([5]; 10 mg/kg bolus ip) [g] | Spleen weight ([5]; 10 mg/kg bolus ip) [g] | Kidney weight ([5]; 25 mg/kg bolus ip) [g] | Liver weight ([5]; 25 mg/kg bolus ip) [g] | Spleen weight ([5]; 25 mg/kg bolus ip) [g] | Kidney weight ([5]; 50 mg/kg bolus ip) [g] | Liver weight ([5]; 50 mg/kg bolus ip) [g] | Spleen weight ([5]; 50 mg/kg bolus ip) [g] | signs of systemic toxicity (tremor, head tilt, reduced activity and squinting) ([5]; healthy CBA/J mice, bolus ip up to 50 mg/kg, observed for 4 days) | biological activity in cell growth inhibition assays ([1]; listed as fragment 157-162)
CC[C@H](C)[C@H](NC(=O)[C@@H](N)CC(N)=O)C(=O)N1CCC[C@H]1C(=O)NCC(=O)N[C@@H](CC(C)C)C(=O)N[C@@H](Cc1ccc(O)cc1)C(=O)N[C@@H](Cc1ccc(O)cc1)C(=O)N[C@@H](Cc1ccccc1)C(=O)N[C@@H](C)C(=O)N[C@@H](Cc1ccc(O)cc1)C(N)=O [ADP 25, H-Asn-Ile-Pro-Gly-Leu-Tyr-Tyr-Phe-Ala-Tyr-NH2] (H-NIPGLYYFAY-NH2) | fully active | bound the first extracellular loop of AdipoR1 | not other loops | – | – | – | – | – | – | – | – | – | – | – | – | – | – | – | –
CCC[C@H](NC(=O)[C@@H]1CCCN1C(=O)[C@@H](NC(=O)[C@H](N)CC(N)=O)[C@@H](C)CC)C(=O)N[C@@H](CC(C)C)C(=O)N[C@@H](Cc1ccc(O)cc1)C(=O)N[C@H](CO)C(=O)N[C@@H](Cc1ccccc1)C(=O)N[C@@H](C)C(=O)N[C@H](CO)C(N)=O [ADP 355, H-DAsn-Ile-Pro-Nva-Leu-Tyr-DSer-Phe-Ala-DSer-NH2] (H-[dN]IP[Nva]LY[dS]FA[dS]-NH2) | – | – | – | without noticeable degradation | at least 30 min | 0.30 | 1.02 | 0.07 | 0.29 | 1.09 | 0.06 | 0.35 | 1.24 | 0.07 | 0.31 | 1.07 | 0.07 | no signs of systemic toxicity | –
CC(C)C[C@H](NC(=O)CNC(=O)[C@@H]1CCCN1)C(=O)N[C@@H](Cc1ccc(O)cc1)C(=O)N[C@@H](Cc1ccc(O)cc1)C(=O)N[C@@H](Cc1ccccc1)C(N)=O [Middle 6 of 25, H-Pro-Gly-Leu-Tyr-Tyr-Phe -NH2] (H-PGLYYF-NH2) | inactive | – | – | – | – | – | – | – | – | – | – | – | – | – | – | – | – | – | did not exhibit any biological activity
